One data set relates to albumin. Particulars: cited from earlier work. From the text: Understanding the signalling of GIP receptors is essential to elucidating their physiological effects and exploiting this receptor as a drug target. The GIP receptor is often reported to couple to Gαs alone ([Oduori et al., 2020b]). […] This indicates potential coupling to Gαq, as IP1 is a stable by-product of IP3 ([Garbison et al., 2004]). The induction of cAMP accumulation by the endogenous GIP agonists was similar to previous studies ([Hansen et al., 2016]; [Yuliantie et al., 2021]). Tirzep ...

The target in data set [1] is T1, human WT GIP receptor (E354) (Homo sapiens, UniProt P48546).
T1 construct: host or cells: Cos7 cells, transient transfection with PEI, pcDNA3.1+
T1 sequence (P48546 22-466): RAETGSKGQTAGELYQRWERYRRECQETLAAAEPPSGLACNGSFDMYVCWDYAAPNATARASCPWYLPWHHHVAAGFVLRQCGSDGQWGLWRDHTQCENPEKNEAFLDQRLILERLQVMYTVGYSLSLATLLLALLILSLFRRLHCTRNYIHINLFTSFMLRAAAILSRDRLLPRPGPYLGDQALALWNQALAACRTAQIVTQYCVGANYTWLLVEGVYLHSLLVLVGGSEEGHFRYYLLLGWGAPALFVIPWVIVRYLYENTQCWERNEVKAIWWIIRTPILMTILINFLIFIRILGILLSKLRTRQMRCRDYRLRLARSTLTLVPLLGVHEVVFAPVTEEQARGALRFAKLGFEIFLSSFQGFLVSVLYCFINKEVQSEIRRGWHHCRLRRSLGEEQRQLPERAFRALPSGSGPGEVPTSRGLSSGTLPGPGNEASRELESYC
Put plainly: AKT phosphorylation (AlphaLISA pAKT Ser473), WT GIP receptor. In kind it is cell-based. To be noted: for Emax: read-out: Emax pAKT. How it is done: (§1) Using a PCR thermocycler (Applied Biosystems PCR system 9700, ThermoFisher, CA, United States), the DNA was initially denatured at 95°C for 2 min, followed by 25 cycles of 98°C for 30 s, 66°C for 15 s and 72°C for 3.5 min. Following the PCR reaction, 1 μL Dpn1 was added, and the DNA transformed into XL.10-gold Ultracompetent E. coli (Agilent Technologies, CA, United States). Plasmid DNA was purified using the NucleoBond Xtra Maxi kit (Macherey-Nagel, Germany) and sequenced prior to use (Centre for Genomics, Proteomics and Metabolomics, University of Auckland).
(§2) Cos7 cells were cultured and transfected as previously described ([Tasma et al., 2022]; [Bower et al., 2018]). Briefly, Cos7 cells were cultured in DMEM supplemented with 8% fetal bovine serum (FBS) in a 37°C humidified incubator with 5% CO2 and seeded into 96-well SpectraPlates at a density of 20,000 cells per well 24 h prior to transfection. […] All plasmid sequences were verified prior to use.
(§3) Phosphorylated (p) Protein Kinase B (AKT), extracellular signal-regulated kinase 1/2 (ERK1/2) and CREB were detected using the AlphaLISA SureFire Ultra pAKT (Ser473), AlphaLISA SureFire Ultra pERK1/2 (Thr202/Tyr204) or AlphaLISA SureFire Ultra pCREB (Ser133) assay kit (PerkinElmer) as per the manufacturer’s protocol. Briefly, Cos7 cells were serum-starved in assay media (DMEM +0.1% BSA) for 4 h at 37°C with 5% CO2 prior to peptide stimulation. Peptides were serially diluted in assay media, and cells were incubated with assay media alone or each concentration of peptide for 15 min. FBS (50%) in pERK1/2 and pAKT or 50 μM forskolin in pCREB assays were used as positive controls. Media was then aspirated, and the cells were lysed in 40 μL of the kit lysis buffer, followed by shaking for 10–15 min at room temperature. Ten microliters of cell lysate was transferred to a white 384-well OptiPlate. […] Plates were read on an Envision plate reader (PerkinElmer). […]
(§4) All data were plotted and analyzed using GraphPad Prism 8.0 (GraphPad Software Inc.). […]

Data set [2] addresses T2, human GIP receptor E354Q variant (Homo sapiens, UniProt P48546, E354Q).
T2 construct: expressed in transfected cells; host or cells: Cos7 cells, transient transfection with PEI, pcDNA3.1+; mutant plasmid made in house from the purchased WT construct
T2 sequence (P48546 22-466 E354Q): T1 sequence (P48546 22-466) with E333Q
Put plainly: ERK1/2 phosphorylation (AlphaLISA pERK1/2 Thr202/Tyr204), E354Q GIP receptor. Particulars: read-out: Emax pERK1/2. The format is cell-based. How it is done:
as §1
(§5) Cos7 cells were cultured and transfected as previously described ([Tasma et al., 2022]; [Bower et al., 2018]). Briefly, Cos7 cells were cultured in DMEM supplemented with 8% fetal bovine serum (FBS) in a 37°C humidified incubator with 5% CO2 and seeded into 96-well SpectraPlates at a density of 20,000 cells per well 24 h prior to transfection. […]
(§6) Phosphorylated (p) Protein Kinase B (AKT), extracellular signal-regulated kinase 1/2 (ERK1/2) and CREB were detected using the AlphaLISA SureFire Ultra pAKT (Ser473), AlphaLISA SureFire Ultra pERK1/2 (Thr202/Tyr204) or AlphaLISA SureFire Ultra pCREB (Ser133) assay kit (PerkinElmer) as per the manufacturer’s protocol. […] Plates were read on an Envision plate reader (PerkinElmer). […]
as §4

Data set [3] deals with T2, human GIP receptor E354Q variant. Briefly: AKT phosphorylation (AlphaLISA pAKT Ser473), E354Q GIP receptor. The format is cell-based. Particulars: for Emax: read-out: Emax pAKT. How it is done:
as §1, §2, §3, §4

Data set [4] has the same target. Briefly: CREB phosphorylation (AlphaLISA pCREB Ser133), E354Q GIP receptor. In kind it is cell-based. Particulars: read-out: Emax pCREB. As for the experimental part: as §1, §5, §6, §4
In data set [5] the target is T1, human WT GIP receptor (E354). Put plainly: CREB phosphorylation (AlphaLISA pCREB Ser133), WT GIP receptor. In kind it is cell-based. To be noted: for Emax: read-out: Emax pCREB. As for the experimental part:
as §1, §2, §3, §4

The target is the same in data set [6]. Put plainly: IP1 accumulation (IP-one Gq kit), WT GIP receptor. The format is cell-based. How it is done: as §1
Cos7 cells were cultured and transfected as previously described ([Tasma et al., 2022]; [Bower et al., 2018]). […]
The IP-one Gq assay kit (Cisbio, PerkinElmer) was used to quantify accumulated myo-inositol-1-phosphate (IP1), a by-product of IP3 produced after receptor-mediated Gαq activation in Cos7 cells, as previously described ([Tasma et al., 2022]; [Bower et al., 2018]). […] Samples were processed as previously described and read using an Envision plate reader (PerkinElmer). IP1 concentrations were determined from a standard curve generated in duplicate.
as §4

The target is the same in data set [7]. Put plainly: ERK1/2 phosphorylation (AlphaLISA pERK1/2 Thr202/Tyr204), WT GIP receptor. To be noted: read-out: Emax pERK1/2. In kind it is cell-based. As for the experimental part: as §1, §5, §6, §4

Where a chain is given by its changes, count along the chain named.

As to `CC[C@H](C)[C@H](NC(=O)[C@H](CC(C)C)NC(=O)[C@H](Cc1c[nH]c2ccccc12)NC(=O)[C@H](CCC(N)=O)NC(=O)[C@@H](NC(=O)[C@H](Cc1ccccc1)NC(=O)[C@H](C)NC(=O)[C@H](CCCCNC(=O)COCCOCCNC(=O)COCCOCCNC(=O)CC[C@H](NC(=O)CCCCCCCCCCCCCCCCCCC(=O)O)C(=O)O)NC(=O)[C@H](CCC(N)=O)NC(=O)[C@H](C)NC(=O)[C@@H](NC(=O)[C@H](CCCCN)NC(=O)[C@H](CC(=O)O)NC(=O)[C@H](CC(C)C)NC(=O)C(C)(C)NC(=O)[C@@H](NC(=O)[C@H](CO)NC(=O)[C@H](Cc1ccc(O)cc1)NC(=O)[C@H](CC(=O)O)NC(=O)[C@H](CO)NC(=O)[C@@H](NC(=O)[C@H](Cc1ccccc1)NC(=O)[C@@H](NC(=O)CNC(=O)[C@H](CCC(=O)O)NC(=O)C(C)(C)NC(=O)[C@@H](N)Cc1ccc(O)cc1)[C@@H](C)O)[C@@H](C)O)[C@@H](C)CC)[C@@H](C)CC)C(C)C)C(=O)N[C@@H](C)C(=O)NCC(=O)NCC(=O)N1CCC[C@H]1C(=O)N[C@@H](CO)C(=O)N[C@@H](CO)C(=O)NCC(=O)N[C@@H](C)C(=O)N1CCC[C@H]1C(=O)N1CCC[C@H]1C(=O)N1CCC[C@H]1C(=O)N[C@@H](CO)C(N)=O` [Tirzepatide], the albumin binding entry in the data set on albumin was “binds to albumin”. Further, the Emax turned out to be 87.7 ± 2.6% in data set [1]; 80.2 ± 17.3% in data set [2]; 51.9 ± 8.95% in data set [3]; 59.4 ± 34.8% in data set [4]; 91.5 ± 10.9% in data set [5]; 54.9% in data set [6] (read-out: Emax IP1, % of maximal response).

Turning to `CC[C@H](C)[C@H](NC(=O)[C@H](CO)NC(=O)[C@H](Cc1ccc(O)cc1)NC(=O)[C@H](CC(=O)O)NC(=O)[C@H](CO)NC(=O)[C@@H](NC(=O)[C@H](Cc1ccccc1)NC(=O)[C@@H](NC(=O)CNC(=O)[C@H](CCC(=O)O)NC(=O)[C@H](C)NC(=O)[C@@H](N)Cc1ccc(O)cc1)[C@@H](C)O)[C@@H](C)CC)C(=O)N[C@@H](C)C(=O)N[C@@H](CCSC)C(=O)N[C@@H](CC(=O)O)C(=O)N[C@@H](CCCCN)C(=O)N[C@H](C(=O)N[C@@H](Cc1c[nH]cn1)C(=O)N[C@@H](CCC(N)=O)C(=O)N[C@@H](CCC(N)=O)C(=O)N[C@@H](CC(=O)O)C(=O)N[C@@H](Cc1ccccc1)C(=O)N[C@H](C(=O)N[C@@H](CC(N)=O)C(=O)N[C@@H](Cc1c[nH]c2ccccc12)C(=O)N[C@@H](CC(C)C)C(=O)N[C@@H](CC(C)C)C(=O)N[C@@H](C)C(=O)N[C@@H](CCC(N)=O)C(=O)N[C@@H](CCCCN)C(N)=O)C(C)C)[C@@H](C)CC` [GIP(1-30)NH2], the EC50 in data set [1] (WT, Cos7, 15 min, DMEM + 0.1% BSA, mean ± s.e.m., n = 3) was 1.48 nM; in data set [3] (E354Q, Cos7, 15 min, DMEM + 0.1% BSA, mean ± s.e.m., n = 3), 0.813 nM; in data set [5] (WT, Cos7, 15 min, DMEM + 0.1% BSA, mean ± s.e.m., n = 3, read-out: pEC50 pCREB (converted)), 0.0631 nM; in data set [6] (WT, Cos7, 90 min, 37°C, DMEM + 0.1% BSA + 1% 10 mM LiCl, mean ± s.e.m., n = 5, read-out: pEC50 IP1 (converted)) it was 1.62 nM. The Emax amounted to 97.1 ± 4.56% in data set [1]; 73.9 ± 9.75% in data set [2]; 50.9 ± 1.72% in data set [3]; 117 ± 3.91% in data set [7]; 70.7 ± 32.9% in data set [4]; 117 ± 8.75% in data set [5].

The values above are taken from article PMC11502443 (Frontiers in Pharmacology, 2024).
